Patent US9532962B2, “Medium-chain length fatty acids and glycerides as nephroprotection agents” (priority 2007, dated 2017)
Entries after “also recorded” stand apart in the source; their conditions may differ.

Key:
C57B1/6 mice = test: Doxorubicin-induced nephrotoxicity model; format: in vivo; settings: for histological kidney lesions score: 10 mg/kg i.v. at day 0; for histological kidney lesions score at the tubular level induced by doxorubicin / serum urea induced by doxorubicin: oral; for serum creatinine induced by doxorubicin: FIG. 9; for serum urea induced by doxorubicin: FIG. 10
Protocol: C57B1/6 mice (6-10 week-old) were treated with sodium caprate prophylacticly from day −3 to day 10 or treated therapeutically from day 1 to 10. Nephrotoxicity was induced by an intravenous injection of 10 mg/kg of doxorubicin at day 0, Serum creatinine and urea were monitored at day 4, 7 and 11.

[1] = test system: 5/6 nephrectomized (Nx) rats; test: Kidney protection in 5/6 nephrectomized (Nx) rat model; format: in vivo, Wistar rats
Protocol: (§1) Male 6 week-old Wistar rats were subjected to 5/6 nephrectomy or sham operations. Under ketamine anesthesia (60 to 100 mg/kg, i.p.), renal ablation was achieved by removing two-thirds of the left kidney followed by a right unilateral nephrectomy 7 days later. Sham rats underwent exposition of the kidneys and removal of the perirenal fat. Twenty-one days after the first operation, rats were assigned in the study if the serum creatinine was greater than 125 μmol/L indicating a dysfunction of the kidney. Animals that underwent the sham operation were given vehicle (saline) and were used as controls. Nx animals were divided in groups receiving the vehicle or sodium caprate. Saline or sodium caprate was given by gastric gavage once daily for 35 days. Serum creatinine was measured weekly in order to assess the severity of this end-stage renal disease model. Rats were sacrificed at day 63.

[2] = test system: 5/6 nephrectomized (Nx) rats; test: Heart protection (blood pressure) in 5/6 nephrectomized (Nx) rat model; format: in vivo; settings: RTBP 2000, FIG. 8
Protocol: as §1

[3] = prophylactic (pre-doxorubicin) treatment
[4] = therapeutic (post-doxorubicin) treatment

Compound	histological lesions in affected tubular regions (micrographs) (C57B1/6 mice; 10 mg/kg i.v. at day 0, 400×)	histological kidney lesions score (C57B1/6 mice; day 7 and 11, FIG. 11)	histological kidney lesions score (C57B1/6 mice; day 12, FIG. 13)	histological kidney lesions score at the tubular level induced by doxorubicin (C57B1/6 mice; [3])	serum creatinine induced by doxorubicin (C57B1/6 mice; prophylactic treatment day -3 to day 10, oral)	protection of kidney against doxorubicin toxicity, histological micrographs (C57B1/6 mice; prophylactic treatment, 400×)	serum urea induced by doxorubicin (C57B1/6 mice; prophylactic treatment)	histological kidney lesions score at the tubular level induced by doxorubicin (C57B1/6 mice; [4])	protection of kidney against doxorubicin toxicity, histological micrographs (C57B1/6 mice; therapeutic treatment)	serum creatinine induced by doxorubicin (C57B1/6 mice; therapeutic treatment day 1 to 10, oral)	serum urea induced by doxorubicin (C57B1/6 mice; therapeutic treatment)	kidney structure (density, glomerulus and tubular structure), histological micrographs ([1]; 40×, compared to control Nx rats, FIG. 6)	fibrosis and necrosis of the kidney tissue, histological micrographs ([1]; 400×, glomerulus level, FIG. 7)	serum creatinine ([1]; compared to control Nx rats, FIG. 5)	urine creatinine ([1]; day 21 to day 42, FIG. 4)	animals showing reduction of initial serum creatinine concentration ([1]; sodium caprate-treated Nx rats, FIG. 2) [%]	blood pressure [2]
COc1cccc2c1C(=O)c1c(O)c3c(c(O)c1C2=O)C[C@@](O)(C(=O)CO)C[C@@H]3O[C@H]1C[C@H](N)[C@H](O)[C@H](C)O1 [doxorubicin, reference compound]	induces kidney cell apoptosis, fibrosis, sclerosis, and accumulation of proteins; also recorded: induces kidney cell apoptosis, fibrosis, sclerosis and accumulation of proteins	induces significant kidney lesions	induces significant kidney lesions	–	–	–	–	–	–	–	–	–	–	–	–	–	–
CCCCCCCCCC(=O)[O-].[Na+] [sodium caprate]	–	–	–	reduce the kidney lesions	inhibits the increase of serum creatinine induced by doxorubicin to a similar level observed in control mice	protects kidney against doxorubicin toxicity	inhibits the increase of serum urea induced by doxorubicin to a similar level observed in control mice	reduce the kidney lesions	protects kidney against doxorubicin toxicity	reduces the serum creatinine level	inhibits the increase of serum urea induced by doxorubicin to a similar level observed in control mice	more conserved	reduces fibrosis and necrosis	significant (p=0.00006) decrease	significant (p=0.0002) increase	80	significant decrease
CCCCCCCCCC(=O)OCC(COC(=O)CCCCCCCCC)OC(=O)CCCCCCCCC [tricaprin]	–	–	–	reduces the kidney lesions	–	protects kidney against doxorubicin toxicity	–	reduces the kidney lesions	protects kidney against doxorubicin toxicity	–	–	–	–	–	–	–	–
